Data: ChEMBL document CHEMBL3045835, “Comparative study of conventional and microwave-assisted synthesis of some Schiff bases and their potential as antimicrobial agents” (2012)

What was measured:
Type in all cases: functional
Pseudomonas aeruginosa [1] = assay: Antibacterial activity against Pseudomonas aeruginosa MTCC 424 at 500 ug/ml after 18 hr by cup-plate method; settings: MTCC 424, 18 h, read-out: DIZ
Pseudomonas aeruginosa [2] = assay: Antibacterial activity against Pseudomonas aeruginosa MTCC 424 at 200 ug/ml after 18 hr by cup-plate method; settings: MTCC 424, 18 h, read-out: DIZ
Pseudomonas aeruginosa [3] = assay: Antibacterial activity against Pseudomonas aeruginosa MTCC 424 at 100 ug/ml after 18 hr by cup-plate method; settings: MTCC 424, 18 h, read-out: DIZ
Micrococcus luteus [4] = assay: Antibacterial activity against Micrococcus luteus MTCC 1538 at 1500 ug/ml after 18 hr by cup-plate method; settings: MTCC 1538, 18 h, read-out: DIZ
Micrococcus luteus [5] = assay: Antibacterial activity against Micrococcus luteus MTCC 1538 at 1000 ug/ml after 18 hr by cup-plate method; settings: MTCC 1538, 18 h, read-out: DIZ
Micrococcus luteus [6] = assay: Antibacterial activity against Micrococcus luteus MTCC 1538 at 500 ug/ml after 18 hr by cup-plate method; settings: MTCC 1538, 18 h, read-out: DIZ
Micrococcus luteus [7] = assay: Antibacterial activity against Micrococcus luteus MTCC 1538 at 200 ug/ml after 18 hr by cup-plate method; settings: MTCC 1538, 18 h, read-out: DIZ
Micrococcus luteus [8] = assay: Antibacterial activity against Micrococcus luteus MTCC 1538 at 100 ug/ml after 18 hr by cup-plate method; settings: MTCC 1538, 18 h, read-out: DIZ
Bacillus pumilus [9] = assay: Antibacterial activity against Bacillus pumilus MTCC 1456 at 1500 ug/ml after 18 hr by cup-plate method; settings: MTCC 1456, 18 h, read-out: DIZ
Bacillus pumilus [10] = assay: Antibacterial activity against Bacillus pumilus MTCC 1456 at 1000 ug/ml after 18 hr by cup-plate method; settings: MTCC 1456, 18 h, read-out: DIZ
Bacillus pumilus [11] = assay: Antibacterial activity against Bacillus pumilus MTCC 1456 at 500 ug/ml after 18 hr by cup-plate method; settings: MTCC 1456, 18 h, read-out: DIZ
Bacillus pumilus [12] = assay: Antibacterial activity against Bacillus pumilus MTCC 1456 at 200 ug/ml after 18 hr by cup-plate method; settings: MTCC 1456, 18 h, read-out: DIZ
Bacillus pumilus [13] = assay: Antibacterial activity against Bacillus pumilus MTCC 1456 at 100 ug/ml after 18 hr by cup-plate method; settings: MTCC 1456, 18 h, read-out: DIZ
Bacillus subtilis [14] = assay: Antibacterial activity against Bacillus subtilis MTCC 441 at 1000 ug/ml after 18 hr by cup plate method; settings: MTCC 441, 18 h, read-out: DIZ
Bacillus subtilis [15] = assay: Antibacterial activity against Bacillus subtilis MTCC 441 at 1500 ug/ml after 18 hr by cup plate method; settings: MTCC 441, 18 h, read-out: DIZ
Bacillus subtilis [16] = assay: Antibacterial activity against Bacillus subtilis MTCC 441 at 500 ug/ml after 18 hr by cup plate method; settings: MTCC 441, 18 h, read-out: DIZ
Bacillus subtilis [17] = assay: Antibacterial activity against Bacillus subtilis MTCC 441 at 200 ug/ml after 18 hr by cup plate method; settings: MTCC 441, 18 h, read-out: DIZ
Bacillus subtilis [18] = assay: Antibacterial activity against Bacillus subtilis MTCC 441 at 100 ug/ml after 18 hr by cup plate method; settings: MTCC 441, 18 h, read-out: DIZ
Staphylococcus aureus [19] = assay: Antibacterial activity against Staphylococcus aureus MTCC 1430 at 1500 ug/ml after 18 hr by cup-plate method; settings: MTCC 1430, 18 h, read-out: DIZ
Staphylococcus aureus [20] = assay: Antibacterial activity against Staphylococcus aureus MTCC 1430 at 1000 ug/ml after 18 hr by cup-plate method; settings: MTCC 1430, 18 h, read-out: DIZ
Staphylococcus aureus [21] = assay: Antibacterial activity against Staphylococcus aureus MTCC 1430 at 500 ug/ml after 18 hr by cup-plate method; settings: MTCC 1430, 18 h, read-out: DIZ
Staphylococcus aureus [22] = assay: Antibacterial activity against Staphylococcus aureus MTCC 1430 at 200 ug/ml after 18 hr by cup-plate method; settings: MTCC 1430, 18 h, read-out: DIZ
Staphylococcus aureus [23] = assay: Antibacterial activity against Staphylococcus aureus MTCC 1430 at 100 ug/ml after 18 hr by cup-plate method; settings: MTCC 1430, 18 h, read-out: DIZ
Penicillium chrysogenum [24] = assay: Antifungal activity against Penicillium chrysogenum MTCC 161 after 24 hr by broth dilution method; settings: MTCC 161, 24 h
Aspergillus niger [25] = assay: Antifungal activity against Aspergillus niger MTCC 2546 after 24 hr by broth dilution method; settings: MTCC 2546, 24 h
Escherichia coli [26] = assay: Antibacterial activity against Escherichia coli MTCC 1573 after 24 hr by broth dilution method; settings: MTCC 1573, 24 h
Pseudomonas fluorescens [27] = assay: Antibacterial activity against Pseudomonas fluorescens MTCC 2421 after 24 hr by broth dilution method; settings: MTCC 2421, 24 h
Pseudomonas aeruginosa [28] = assay: Antibacterial activity against Pseudomonas aeruginosa MTCC 424 after 24 hr by broth dilution method; settings: MTCC 424, 24 h
Micrococcus luteus [29] = assay: Antibacterial activity against Micrococcus luteus MTCC 1538 after 24 hr by broth dilution method; settings: MTCC 1538, 24 h
Bacillus pumilus [30] = assay: Antibacterial activity against Bacillus pumilus MTCC 1456 after 24 hr by broth dilution method; settings: MTCC 1456, 24 h
Staphylococcus aureus [31] = assay: Antibacterial activity against Staphylococcus aureus MTCC 1430 after 24 hr by broth dilution method; settings: MTCC 1430, 24 h
Bacillus subtilis [32] = assay: Antibacterial activity against Bacillus subtilis MTCC 441 after 24 hr by broth dilution method; settings: MTCC 441, 24 h
Pseudomonas fluorescens [33] = assay: Antibacterial activity against Pseudomonas fluorescens MTCC 2421 at 1000 ug/ml after 18 hr by cup-plate method; settings: MTCC 2421, 18 h, read-out: DIZ
Pseudomonas fluorescens [34] = assay: Antibacterial activity against Pseudomonas fluorescens MTCC 2421 at 1500 ug/ml after 18 hr by cup-plate method; settings: MTCC 2421, 18 h, read-out: DIZ
Pseudomonas fluorescens [35] = assay: Antibacterial activity against Pseudomonas fluorescens MTCC 2421 at 500 ug/ml after 18 hr by cup-plate method; settings: MTCC 2421, 18 h, read-out: DIZ
Pseudomonas fluorescens [36] = assay: Antibacterial activity against Pseudomonas fluorescens MTCC 2421 at 200 ug/ml after 18 hr by cup-plate method; settings: MTCC 2421, 18 h, read-out: DIZ
Penicillium chrysogenum [37] = assay: Antifungal activity against Penicillium chrysogenum MTCC 161 at 1500 ug/ml after 18 hr by cup-plate method; settings: MTCC 161, 18 h, read-out: DIZ
Penicillium chrysogenum [38] = assay: Antifungal activity against Penicillium chrysogenum MTCC 161 at 1000 ug/ml after 18 hr by cup-plate method; settings: MTCC 161, 18 h, read-out: DIZ
Penicillium chrysogenum [39] = assay: Antifungal activity against Penicillium chrysogenum MTCC 161 at 500 ug/ml after 18 hr by cup-plate method; settings: MTCC 161, 18 h, read-out: DIZ
Penicillium chrysogenum [40] = assay: Antifungal activity against Penicillium chrysogenum MTCC 161 at 200 ug/ml after 18 hr by cup-plate method; settings: MTCC 161, 18 h, read-out: DIZ
Penicillium chrysogenum [41] = assay: Antifungal activity against Penicillium chrysogenum MTCC 161 at 100 ug/ml after 18 hr by cup-plate method; settings: MTCC 161, 18 h, read-out: DIZ
Aspergillus niger [42] = assay: Antifungal activity against Aspergillus niger MTCC 2546 at 1000 ug/ml after 18 hr by cup-plate method; settings: MTCC 2546, 18 h, read-out: DIZ
Aspergillus niger [43] = assay: Antifungal activity against Aspergillus niger MTCC 2546 at 1500 ug/ml after 18 hr by cup-plate method; settings: MTCC 2546, 18 h, read-out: DIZ
Aspergillus niger [44] = assay: Antifungal activity against Aspergillus niger MTCC 2546 at 500 ug/ml after 18 hr by cup-plate method; settings: MTCC 2546, 18 h, read-out: DIZ
Aspergillus niger [45] = assay: Antifungal activity against Aspergillus niger MTCC 2546 at 100 ug/ml after 18 hr by cup-plate method; settings: MTCC 2546, 18 h, read-out: DIZ
Aspergillus niger [46] = assay: Antifungal activity against Aspergillus niger MTCC 2546 at 200 ug/ml after 18 hr by cup-plate method; settings: MTCC 2546, 18 h, read-out: DIZ
Escherichia coli [47] = assay: Antibacterial activity against Escherichia coli MTCC 1573 at 1500 ug/ml after 18 hr by cup-plate method; settings: MTCC 1573, 18 h, read-out: DIZ
Escherichia coli [48] = assay: Antibacterial activity against Escherichia coli MTCC 1573 at 500 ug/ml after 18 hr by cup-plate method; settings: MTCC 1573, 18 h, read-out: DIZ
Escherichia coli [49] = assay: Antibacterial activity against Escherichia coli MTCC 1573 at 1000 ug/ml after 18 hr by cup-plate method; settings: MTCC 1573, 18 h, read-out: DIZ
Escherichia coli [50] = assay: Antibacterial activity against Escherichia coli MTCC 1573 at 200 ug/ml after 18 hr by cup-plate method; settings: MTCC 1573, 18 h, read-out: DIZ
Escherichia coli [51] = assay: Antibacterial activity against Escherichia coli MTCC 1573 at 100 ug/ml after 18 hr by cup-plate method; settings: MTCC 1573, 18 h, read-out: DIZ
Pseudomonas fluorescens [52] = assay: Antibacterial activity against Pseudomonas fluorescens MTCC 2421 at 100 ug/ml after 18 hr by cup-plate method; settings: MTCC 2421, 18 h, read-out: DIZ
Pseudomonas aeruginosa [53] = assay: Antibacterial activity against Pseudomonas aeruginosa MTCC 424 at 1500 ug/ml after 18 hr by cup-plate method; settings: MTCC 424, 18 h, read-out: DIZ
Pseudomonas aeruginosa [54] = assay: Antibacterial activity against Pseudomonas aeruginosa MTCC 424 at 1000 ug/ml after 18 hr by cup-plate method; settings: MTCC 424, 18 h, read-out: DIZ

C(=N/c1nc[nH]n1)/c1cccc2ccccc12
23 mm: zone of inhibition at 1500 µg/mL (Micrococcus luteus [4]) | zone of inhibition at 1500 µg/mL (Pseudomonas fluorescens [34]) | zone of inhibition at 1000 µg/mL (Escherichia coli [49])
200 µg/mL: MIC (Pseudomonas aeruginosa [28])
19 mm: zone of inhibition at 1000 µg/mL (Bacillus subtilis [14]) | zone of inhibition at 500 µg/mL (Pseudomonas fluorescens [35]) | zone of inhibition at 500 µg/mL (Escherichia coli [48])
25 mm: zone of inhibition at 1500 µg/mL (Escherichia coli [47])
22 mm: zone of inhibition at 1500 µg/mL (Aspergillus niger [43]) | zone of inhibition at 1000 µg/mL (Pseudomonas aeruginosa [54])
24 mm: zone of inhibition at 1500 µg/mL (Penicillium chrysogenum [37]) | zone of inhibition at 1500 µg/mL (Pseudomonas aeruginosa [53])
17 mm: zone of inhibition at 100 µg/mL (Pseudomonas aeruginosa [3]) | zone of inhibition at 500 µg/mL (Bacillus pumilus [11]) | zone of inhibition at 100 µg/mL (Penicillium chrysogenum [41]) | zone of inhibition at 200 µg/mL (Aspergillus niger [46]) | zone of inhibition at 100 µg/mL (Escherichia coli [51])
400 µg/mL: MIC (Staphylococcus aureus [31])
12 mm: zone of inhibition at 100 µg/mL (Micrococcus luteus [8]) | zone of inhibition at 100 µg/mL (Staphylococcus aureus [23])
300 µg/mL: MIC (Pseudomonas fluorescens [27]) | MIC (Micrococcus luteus [29]) | MIC (Bacillus pumilus [30]) | MIC (Bacillus subtilis [32])
14 mm: zone of inhibition at 500 µg/mL (Staphylococcus aureus [21]) | zone of inhibition at 100 µg/mL (Pseudomonas fluorescens [52])
21 mm: zone of inhibition at 1500 µg/mL (Bacillus subtilis [15]) | zone of inhibition at 1000 µg/mL (Pseudomonas fluorescens [33]) | zone of inhibition at 1000 µg/mL (Penicillium chrysogenum [38]) | zone of inhibition at 1000 µg/mL (Aspergillus niger [42])
16 mm: zone of inhibition at 200 µg/mL (Bacillus pumilus [12]) | zone of inhibition at 200 µg/mL (Bacillus subtilis [17]) | zone of inhibition at 1000 µg/mL (Staphylococcus aureus [20]) | zone of inhibition at 200 µg/mL (Pseudomonas fluorescens [36]) | zone of inhibition at 100 µg/mL (Aspergillus niger [45])
13 mm: zone of inhibition at 100 µg/mL (Bacillus pumilus [13]) | zone of inhibition at 200 µg/mL (Staphylococcus aureus [22])
20 mm: zone of inhibition at 500 µg/mL (Pseudomonas aeruginosa [1]) | zone of inhibition at 1000 µg/mL (Micrococcus luteus [5]) | zone of inhibition at 1500 µg/mL (Bacillus pumilus [9]) | zone of inhibition at 500 µg/mL (Penicillium chrysogenum [39])
50 µg/mL: MIC (Penicillium chrysogenum [24]) | MIC (Aspergillus niger [25]) | MIC (Escherichia coli [26])
18 mm: zone of inhibition at 200 µg/mL (Pseudomonas aeruginosa [2]) | zone of inhibition at 500 µg/mL (Micrococcus luteus [6]) | zone of inhibition at 1000 µg/mL (Bacillus pumilus [10]) | zone of inhibition at 500 µg/mL (Bacillus subtilis [16]) | zone of inhibition at 1500 µg/mL (Staphylococcus aureus [19]) | zone of inhibition at 200 µg/mL (Penicillium chrysogenum [40]) | zone of inhibition at 500 µg/mL (Aspergillus niger [44]) | zone of inhibition at 200 µg/mL (Escherichia coli [50])
15 mm: zone of inhibition at 200 µg/mL (Micrococcus luteus [7]) | zone of inhibition at 100 µg/mL (Bacillus subtilis [18])
